# Literature values, collected in patent EP0276807A2, “Lipid regulating compositions” (WARNER-LAMBERT COMPANY, priority 1987, dated 1988).
# Target: T1, HMG-CoA reductase (Homo sapiens, UniProt P04035)
# T1 sequence (P04035 1-888): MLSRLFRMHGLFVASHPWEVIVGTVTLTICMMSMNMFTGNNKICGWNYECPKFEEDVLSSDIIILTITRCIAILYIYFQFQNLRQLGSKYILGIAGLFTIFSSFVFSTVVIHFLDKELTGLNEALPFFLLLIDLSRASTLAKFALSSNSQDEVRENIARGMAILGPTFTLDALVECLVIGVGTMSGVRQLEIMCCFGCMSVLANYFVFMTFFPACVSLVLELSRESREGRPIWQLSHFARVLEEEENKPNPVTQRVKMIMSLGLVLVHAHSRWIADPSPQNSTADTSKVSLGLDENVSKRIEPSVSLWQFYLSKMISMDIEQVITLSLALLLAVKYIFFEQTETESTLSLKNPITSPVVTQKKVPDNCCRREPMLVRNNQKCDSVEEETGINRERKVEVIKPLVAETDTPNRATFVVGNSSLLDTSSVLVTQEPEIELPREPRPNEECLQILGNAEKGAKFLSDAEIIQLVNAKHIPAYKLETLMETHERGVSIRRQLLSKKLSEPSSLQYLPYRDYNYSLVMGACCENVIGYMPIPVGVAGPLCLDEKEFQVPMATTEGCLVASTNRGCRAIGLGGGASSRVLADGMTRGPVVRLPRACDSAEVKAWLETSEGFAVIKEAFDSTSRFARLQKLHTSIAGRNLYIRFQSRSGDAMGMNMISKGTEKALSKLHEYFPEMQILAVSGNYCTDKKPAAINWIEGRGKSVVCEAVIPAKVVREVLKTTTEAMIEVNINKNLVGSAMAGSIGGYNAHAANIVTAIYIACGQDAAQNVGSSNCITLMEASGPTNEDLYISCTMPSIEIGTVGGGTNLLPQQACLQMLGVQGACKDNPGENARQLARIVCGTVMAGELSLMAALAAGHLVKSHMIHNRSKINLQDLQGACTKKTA
# Details: read-out: IC₅₀ value for inhibition of HMG-CoA reductase
smiles,measurement,value
"CCC(C)C(=O)OC1CC(C)C=C2C=CC(C)C(CCC(O)CC(O)CC(=O)O)C21 (stereo not drawn) [Mevinolinic acid, [1S-[1α(βS*,δS*),2α,6β,8β(R*)8aα]]-1,2,6,7,8,8a-hexahydro-β,δ-dihydroxy-2,6-dimethyl-8-(2-methyl-1-oxobutoxy)-1-naphthaleneheptanoic acid]",IC50,~5.6 nM
